Assays:
ischemic brain injury = assay: Ischemic brain injury in fetal sheep, postischemic seizures and neuronal loss (Experiment 2); assay type: in vivo
Description: The objective of this study was to compare the effects of treatment either with IGF-1 (see FIG. 2) and previously published work with the NMDA antagonist […] after an ischemic brain injury on postischemic seizures and neuronal losses in fetal sheep. (Tan et al Ann Neurol 32:677-682 (1992)).
The methods were those of an earlier study (Tan et al Ann Neurol 32:677-682 (1992)). Briefly, late gestation fetal sheep were chronically instrumented to record EEG, nuchal activity and blood pressure, and were then returned to the uterus. Cortical EEG activity nuchal activity and blood pressure were recorded throughout he experiment and the fetal brain subjected to 30 minutes of ischemia. Two hours later they were treated by an infusion of either 1 μg IGF-1 (n=6) or vehicle (artificial CSF) (n=6) into the lateral ventricle. Five days later the brains were fixed and assessed for neuronal loss as described previously (Tan et al Ann Neurol 32:677-682 (1992)).
In all cases the vehicle is the left-hand column and the effects of 1 μg of IGF-1 is on the right.

[1] = system: hypoxic-ischemic injury to one cerebral hemisphere; assay: Hypoxic-ischemic injury in adult rats, IGF-1 vs MK801 (Experiment 1); assay type: in vivo, Wistar rats; conditions: 50 μg IGF-1 intraventricular and/or 1 mg MK801, 2 hours after hypoxia; histology at 120 hours; controls 65%
Description: Adult Wistar rats (68 280-320 g) were prepared under 3% halothane/O2 anaesthesia. The right side carotid artery was ligated. A guide cannula was placed on the dura 8.2 mm anterior from bregma and 1.4 mm from midline on the right. The rats were allowed to recover from anaesthesia for 1 hour and were then placed in an incubator with humidity 85±5% and temperature 34±0.5° C. for 1 hour before hypoxia. Oxygen concentration was reduced and maintained at 6±0.2 O2 % hypoxia for 10 minutes. […] The intraventricular injections of 50 μg IGF-1 or vehicle alone were made into the right lateral ventricle at 1 μl/minute under 1.5%-2% halothane anaesthetic. Rats in each treatment group were infused simultaneously. The rats had free access to food during experiment and were euthanized at 120 hours after hypoxia with overdose of sodium pentobarbitol. Briefly, the brain was perfused in-situ with FAM (Formaldehyde, Acetic Acid, Methanol 1:1:8) then paraffin embedded. The sections were stained with Thionin and Acid Fuchsin. The presence of cortical infarction, defined as a region of tissue death or parenchymal pan-necrosis due to death of glia as well as neurons, was determined via light microscopy by an assessor who was blinded to the experimental groupings.

Compound | neuronal rescue (neuronal loss scores) (ischemic brain injury; 1 μg IGF-1 into lateral ventricle 2 hours after 30 minutes of ischemia, assessed five days later) | postischemic seizure activity (ischemic brain injury; 1 μg IGF-1 into lateral ventricle 2 hours after ischemia) | incidence of cortical infarction [1] [%]
insulin-like growth factor 1 [IGF-1] | rescued neurons | did not suppress | 33
C[C@]12N[C@H](Cc3ccccc31)c1ccccc12 [MK801, reference compound] | – | – | 50
